A short description of the data set: activity coefficient (dimensionless); of the first substance listed, at infinite dilution; xn = mol fraction of the nth substance listed. The following applies: Liquid, GC, x1 = 0.

Each structure is given as a SMILES string. ± gives the expanded uncertainty stated by the source.

`CCCCCl` [1-chlorobutane] + CCCCCCCCCCCCCCCCCCCCO: the activity coefficient worked out at 0.0991 ± 0.0059 (338.15 K, 101 kPa); 0.0954 ± 0.0057 (343.15 K, 101 kPa); 0.0919 ± 0.0055 (348.15 K, 101 kPa); 0.0886 ± 0.0053 (353.15 K, 101 kPa).

For the compound `CCCCCl` [1-chlorobutane] + CCCCCCCCCCCCCCCCCCO, the activity coefficient was 0.0389 ± 0.0023 (333.15 K, 101 kPa); 0.036 ± 0.0022 (338.15 K, 101 kPa); 0.0338 ± 0.002 (343.15 K, 101 kPa); 0.0321 ± 0.0019 (348.15 K, 101 kPa); 0.03 ± 0.0018 (353.15 K, 101 kPa).

For `CCCCl` [1-chloropropane] + CCCCCCCCCCCCCCCCCCCCO, the activity coefficient runs as follows: (338.15 K, 101 kPa) 0.0779 ± 0.0047; (343.15 K, 101 kPa) 0.0778 ± 0.0047; (348.15 K, 101 kPa) 0.0778 ± 0.0047; (353.15 K, 101 kPa) 0.0777 ± 0.0047.

In the case of `CCCCl` [1-chloropropane] + CCCCCCCCCCCCCCCCCCO, the activity coefficient (333.15 K, 101.3 kPa) stood at 0.0331 ± 0.002; the activity coefficient (338.15 K, 101.3 kPa) was 0.0294 ± 0.0018; the activity coefficient (343.15 K, 101.3 kPa) stood at 0.0269 ± 0.0016; the activity coefficient (348.15 K, 101.3 kPa) came out at 0.0245 ± 0.0015; the activity coefficient (353.15 K, 101.3 kPa) was determined as 0.0225 ± 0.0014.

As to `C=CCCCCC` [1-heptene] + CCCCCCCCCCCCCCCCCCCCO, the activity coefficient amounted to 0.124 ± 0.0074 (338.15 K, 101 kPa); 0.118 ± 0.0071 (343.15 K, 101 kPa); 0.113 ± 0.0068 (348.15 K, 101 kPa); 0.108 ± 0.0065 (353.15 K, 101 kPa).

Consider `C=CCCCCC` [1-heptene] + CCCCCCCCCCCCCCCCCCO, for which the activity coefficient is, setting by setting: (333.15 K, 101.3 kPa) 0.0431 ± 0.0026; (338.15 K, 101.3 kPa) 0.0417 ± 0.0025; (343.15 K, 101.3 kPa) 0.0407 ± 0.0024; (348.15 K, 101.3 kPa) 0.0397 ± 0.0024; (353.15 K, 101.3 kPa) 0.0388 ± 0.0023.

Take `C=CCCC` [1-pentene] + CCCCCCCCCCCCCCCCCCCCO: the activity coefficient amounted to 0.0813 ± 0.0049 (338.15 K, 101 kPa); 0.0742 ± 0.0045 (343.15 K, 101 kPa); 0.0664 ± 0.004 (348.15 K, 101 kPa); 0.06 ± 0.0036 (353.15 K, 101 kPa).

For `C=CCCC` [1-pentene] + CCCCCCCCCCCCCCCCCCO, the activity coefficient by setting is: (333.15 K, 101.3 kPa) 0.0261 ± 0.0016; (338.15 K, 101.3 kPa) 0.0245 ± 0.0015; (343.15 K, 101.3 kPa) 0.0234 ± 0.0014; (348.15 K, 101.3 kPa) 0.0222 ± 0.0013; (353.15 K, 101.3 kPa) 0.0213 ± 0.0013.

On to `CC(C)=O` [acetone] + CCCCCCCCCCCCCCCCCCCCO, for which the activity coefficient is, setting by setting: (338.15 K, 101 kPa) 0.0557 ± 0.0033; (343.15 K, 101 kPa) 0.0572 ± 0.0034; (348.15 K, 101 kPa) 0.0587 ± 0.0035; (353.15 K, 101 kPa) 0.0602 ± 0.0036.

With `CC(C)=O` [acetone] + CCCCCCCCCCCCCCCCCCO, the activity coefficient (333.15 K, 101 kPa) amounted to 0.0185 ± 0.0011; the activity coefficient (338.15 K, 101 kPa) turned out to be 0.0179 ± 0.0011; the activity coefficient (343.15 K, 101 kPa) was 0.0174 ± 0.001; the activity coefficient (348.15 K, 101 kPa) came out at 0.017 ± 0.001; the activity coefficient (353.15 K, 101 kPa) worked out at 0.0166 ± 0.001.

As to `CC#N` [acetonitrile] + CCCCCCCCCCCCCCCCCCCCO, the activity coefficient reads like this: (338.15 K, 101 kPa) 0.309 ± 0.019; (343.15 K, 101 kPa) 0.265 ± 0.016; (348.15 K, 101 kPa) 0.229 ± 0.014; (353.15 K, 101 kPa) 0.197 ± 0.012.

In the case of `CC#N` [acetonitrile] + CCCCCCCCCCCCCCCCCCO, the activity coefficient is, setting by setting: (333.15 K, 101 kPa) 0.108 ± 0.0065; (338.15 K, 101 kPa) 0.0969 ± 0.0058; (343.15 K, 101 kPa) 0.0901 ± 0.0054; (348.15 K, 101 kPa) 0.0832 ± 0.005; (353.15 K, 101 kPa) 0.0766 ± 0.0046.

As to `CCCCO` [butan-1-ol] + CCCCCCCCCCCCCCCCCCCCO, the activity coefficient is, setting by setting: (338.15 K, 101 kPa) 0.431 ± 0.026; (343.15 K, 101 kPa) 0.387 ± 0.023; (348.15 K, 101 kPa) 0.352 ± 0.021; (353.15 K, 101 kPa) 0.316 ± 0.019.

As for `CCCCO` [butan-1-ol] + CCCCCCCCCCCCCCCCCCO, the activity coefficient was determined as 0.154 ± 0.0092 (333.15 K, 101.3 kPa); 0.136 ± 0.008 (338.15 K, 101.3 kPa); 0.121 ± 0.0073 (343.15 K, 101.3 kPa); 0.11 ± 0.0066 (348.15 K, 101.3 kPa); 0.0992 ± 0.006 (353.15 K, 101.3 kPa).

For the compound `CCCCOC(C)=O` [butyl ethanoate] + CCCCCCCCCCCCCCCCCCCCO, the activity coefficient is, setting by setting: (338.15 K, 101 kPa) 0.14 ± 0.0084; (343.15 K, 101 kPa) 0.131 ± 0.0079; (348.15 K, 101 kPa) 0.123 ± 0.0074; (353.15 K, 101 kPa) 0.115 ± 0.0069.

Take `CCCCOC(C)=O` [butyl ethanoate] + CCCCCCCCCCCCCCCCCCO: the activity coefficient reads like this: (333.15 K, 101.3 kPa) 0.0526 ± 0.0032; (338.15 K, 101.3 kPa) 0.0468 ± 0.0028; (343.15 K, 101.3 kPa) 0.0428 ± 0.0026; (348.15 K, 101.3 kPa) 0.0391 ± 0.0023; (353.15 K, 101.3 kPa) 0.0358 ± 0.0021.

On to `C1CCCCC1` [cyclohexane] + CCCCCCCCCCCCCCCCCCCCO, for which the activity coefficient runs as follows: (338.15 K, 101 kPa) 0.108 ± 0.0065; (343.15 K, 101 kPa) 0.102 ± 0.0061; (348.15 K, 101 kPa) 0.0969 ± 0.0058; (353.15 K, 101 kPa) 0.0918 ± 0.0055.

Regarding `C1CCCCC1` [cyclohexane] + CCCCCCCCCCCCCCCCCCO, the activity coefficient by setting is: (333.15 K, 101 kPa) 0.0365 ± 0.0022; (338.15 K, 101 kPa) 0.0337 ± 0.002; (343.15 K, 101 kPa) 0.0315 ± 0.0019; (348.15 K, 101 kPa) 0.0294 ± 0.0018; (353.15 K, 101 kPa) 0.0274 ± 0.0016.

The record behind these values is the NIST ThermoML archive (doi:10.1021/je1005517).
